Assay results reported in ChEMBL document CHEMBL1201862, “PubChem BioAssay data set” (2004).
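Assay format: 96-well plates, 48-hour exposure. Abbreviation: GI50, concentration required for 50% inhibition of growth.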 The source made the active and inactive calls. Cut-off read from the data, not from the text of the source: active = GI50 up to about 1.1 µM and inactive = higher.

Tests used:
Assay in all cases: NCI anticancer screen, dose series, 48 h
[1] = test system: XF498
[2] = test system: HOP-18
[3] = test system: M19-MEL
[4] = test system: LXFL 529
[5] = test system: KM-20L2
[6] = test system: DMS-114
[7] = test system: DLD-1
[8] = test system: RXF 631
[9] = test system: DMS-273

SMILES	GI50 [1]	GI50 [2]	GI50 [3]	GI50 [4]	GI50 [5]	GI50 [6]	GI50 [7]	GI50 [8]	GI50 [9]
C[C@]12CCc3nonc3C1CC[C@@H]1C2CC[C@@]2(C)C1CC[C@@H]2O (stereo partly drawn)	> 100 µM (inactive)	> 100 µM (inactive)	> 100 µM (inactive)	> 100 µM (inactive)	> 100 µM (inactive)	> 100 µM (inactive)	> 100 µM (inactive)	> 100 µM (inactive)	> 100 µM (inactive)
Cc1ccc(NC(=O)CCC(=O)C2CC(=O)CCC2=O)cc1C (stereo not drawn)		> 100 µM (inactive)	> 100 µM (inactive)	> 100 µM (inactive)	> 100 µM (inactive)	> 100 µM (inactive)	> 100 µM (inactive)	> 100 µM (inactive)	> 100 µM (inactive)
CC(=O)OC1C(=O)C(O)C(C)OC1O[C@@H]1C[C@@]2(C)[C@@H]3CC=C4[C@@H](C[C@H](O)C(=O)C4(C)C)[C@]3(C)C(=O)C[C@]2(C)[C@H]1[C@@](C)(O)C(=O)/C=C/C(C)(C)O (stereo partly drawn)	0.297 µM (active)	1.22 µM (inactive)	2.44 µM (inactive)	0.881 µM (active)	1.39 µM (inactive)		1.3 µM (inactive)	2.39 µM (inactive)	0.658 µM (active)
CN(/N=C/c1ccnc2ccccc12)c1c([N+](=O)[O-])cc([N+](=O)[O-])cc1[N+](=O)[O-]	70.1 µM (inactive)	> 100 µM (inactive)	> 100 µM (inactive)	48.4 µM (inactive)	> 100 µM (inactive)	37.9 µM (inactive)	37.4 µM (inactive)		> 100 µM (inactive)
C=C1C(=O)OC2/C=C(\C)C(O)/C=C\C(C)(O)CC(OC(=O)/C(C)=C/C)C12 (stereo not drawn)	29.9 µM (inactive)	> 74.8 µM (inactive)	17.5 µM (inactive)	15.3 µM (inactive)	13.2 µM (inactive)	> 48 µM (inactive)	13.2 µM (inactive)	38.2 µM (inactive)	16.7 µM (inactive)
COc1ccccc1OCc1nnc(SCC(=O)O)n1-c1ccccc1	> 100 µM (inactive)			> 100 µM (inactive)	> 100 µM (inactive)	> 100 µM (inactive)	> 100 µM (inactive)		> 100 µM (inactive)
CC(=O)O[C@H]1CC[C@@]2(C)C(=CC[C@@H]3C2CC[C@]2(C)Nc4oncc4CC32)C1 (stereo partly drawn)	31.5 µM (inactive)		28.5 µM (inactive)	13 µM (inactive)	90.6 µM (inactive)		46 µM (inactive)	33.5 µM (inactive)	26.9 µM (inactive)
Cn1cc2ccccc2c1-c1nc(F)nc(Oc2ccc3c(c2)CC[C@@H]2C3CC[C@@]3(C)C2C[C@H](O)[C@@H]3O)n1 (stereo partly drawn)	22.4 µM (inactive)	22.3 µM (inactive)	16.9 µM (inactive)	13.8 µM (inactive)	15.8 µM (inactive)	12.3 µM (inactive)	10.3 µM (inactive)		10.3 µM (inactive)
CN/N=C(/CC(=O)c1sc(NNC(C)=O)nc1C)C(=O)Nc1ccc(OC)cc1OC	> 100 µM (inactive)		> 100 µM (inactive)	> 100 µM (inactive)	> 100 µM (inactive)	> 100 µM (inactive)	> 100 µM (inactive)		> 100 µM (inactive)
O=C1c2ccc3c4ccccc4n(Cc4ccccc4)c3c2C(=O)N1c1ccccc1		12.1 µM (inactive)	17.3 µM (inactive)	14.3 µM (inactive)	20.9 µM (inactive)	17.9 µM (inactive)	17 µM (inactive)	14.5 µM (inactive)	12.4 µM (inactive)
NC(=O)c1ccccc1NC(=O)C(=O)Cc1nc2ccccc2nc1O			> 100 µM (inactive)	> 100 µM (inactive)	> 100 µM (inactive)	94.6 µM (inactive)	> 100 µM (inactive)	> 100 µM (inactive)	> 100 µM (inactive)
CC(C)c1cccc(C(C)C)c1NC1=CC(=O)C(=O)c2ccccc21		> 100 µM (inactive)	22.3 µM (inactive)	> 100 µM (inactive)	> 100 µM (inactive)		> 100 µM (inactive)	> 100 µM (inactive)	> 100 µM (inactive)
O=[N+]([O-])c1ccc(-c2csc(=[N+]3CCCCC3)s2)cc1	19.5 µM (inactive)	> 100 µM (inactive)	10.7 µM (inactive)	5.93 µM (inactive)	6.1 µM (inactive)	2.13 µM (inactive)	18.3 µM (inactive)	87.5 µM (inactive)	28.8 µM (inactive)
Cc1ccc(C(O)/C(=N/N)c2nc3ccc([N+](=O)[O-])cc3nc2O)cc1 (stereo not drawn)	95.5 µM (inactive)		> 100 µM (inactive)	67 µM (inactive)	57.5 µM (inactive)	33.9 µM (inactive)	> 100 µM (inactive)		83.4 µM (inactive)
CCCCCN(CCCCC)C(=O)[C@H](CCC(=O)OCc1ccccc1)NC(=O)c1cc2ccccc2[nH]1		> 100 µM (inactive)		> 100 µM (inactive)	> 100 µM (inactive)	> 100 µM (inactive)	> 100 µM (inactive)	> 100 µM (inactive)	> 100 µM (inactive)
COc1cccc(C2=NC(C(C)C)CO2)c1OC (stereo not drawn)	> 100 µM (inactive)		> 100 µM (inactive)	> 100 µM (inactive)	> 100 µM (inactive)	> 100 µM (inactive)	> 100 µM (inactive)		> 100 µM (inactive)
COC(=O)[C@H]1C2CC[C@@H]3C45C[C@@H](c6ccoc6)O[C@@H]4O[C@@H](O2)C31CCC5C (stereo partly drawn)	> 100 µM (inactive)	> 100 µM (inactive)		57.7 µM (inactive)	> 100 µM (inactive)		> 100 µM (inactive)		> 100 µM (inactive)
COc1cc([C@@H]2OC(=O)C3C2C(=O)O[C@H]3c2ccc(O)c(OC)c2)ccc1O (stereo partly drawn)		> 100 µM (inactive)	> 100 µM (inactive)	> 100 µM (inactive)	> 100 µM (inactive)	> 100 µM (inactive)	> 100 µM (inactive)	> 100 µM (inactive)	> 100 µM (inactive)
Clc1ccc(CNc2nc3ccccc3nc2-c2cccs2)c(Cl)c1	26.7 µM (inactive)	> 100 µM (inactive)	66.8 µM (inactive)	> 100 µM (inactive)	49.3 µM (inactive)			67.3 µM (inactive)	86.7 µM (inactive)
O=C(NCc1ccc2ccc3cccnc3c2n1)c1ccc[n+](Cc2ccccc2)c1	> 100 µM (inactive)	> 100 µM (inactive)	60.8 µM (inactive)	67.6 µM (inactive)	> 100 µM (inactive)	36.8 µM (inactive)	> 100 µM (inactive)	> 100 µM (inactive)	> 100 µM (inactive)
O=C(N/N=C(/CCN1CCCC1)CC(c1ccccc1)c1c(O)c2ccccc2oc1=O)c1ccncc1 (stereo not drawn)		> 100 µM (inactive)	95.1 µM (inactive)	> 100 µM (inactive)	> 100 µM (inactive)		> 100 µM (inactive)		
COC(=O)C(C(=O)C(=O)Nc1cccc([N+](=O)[O-])c1)c1nc2ccc([N+](=O)[O-])cc2nc1O (stereo not drawn)	> 100 µM (inactive)	> 100 µM (inactive)	> 100 µM (inactive)	> 100 µM (inactive)	> 100 µM (inactive)	> 100 µM (inactive)	> 100 µM (inactive)	> 100 µM (inactive)	> 100 µM (inactive)
O=C(Nc1ccc(C(F)(F)F)cc1[N+](=O)[O-])C(=O)C1NC(=S)NC1=O (stereo not drawn)		> 100 µM (inactive)	> 100 µM (inactive)	> 100 µM (inactive)	> 100 µM (inactive)	> 100 µM (inactive)	> 100 µM (inactive)	82.2 µM (inactive)	> 100 µM (inactive)
COc1cc2c(c(OC)c1OC)-c1ccc(SC)c(=O)cc1[C@@H](NC(=O)C(F)(F)F)CC2	0.0585 µM (active)	26.5 µM (inactive)		< 0.01 µM (active)	< 0.01 µM (active)		< 0.01 µM (active)		< 0.01 µM (active)
C[N+](C)(C)CC(=O)N/N=C(\C(=O)NC1=C(Cl)C(=O)c2ccccc2C1=O)C(C#N)c1csc(-c2ccc([N+](=O)[O-])cc2)n1 (stereo not drawn)	> 100 µM (inactive)	> 100 µM (inactive)	> 100 µM (inactive)	> 100 µM (inactive)	> 100 µM (inactive)	> 100 µM (inactive)	> 100 µM (inactive)	> 100 µM (inactive)	> 100 µM (inactive)
CN1C(=O)CSC1=S [3-METHYL-RHODANINE]		> 100 µM (inactive)	> 100 µM (inactive)	> 100 µM (inactive)	> 100 µM (inactive)	> 100 µM (inactive)	> 100 µM (inactive)		> 100 µM (inactive)
C[C@H]1CCC/C=C/[C@@H]2C[C@H](O)C[C@H]2[C@H](O)/C=C/C(=O)O1 [BREFELDIN A]	0.00649 µM (active)	2.81 µM (inactive)		0.00877 µM (active)	0.0041 µM (active)		0.0134 µM (active)	0.101 µM (active)	0.0266 µM (active)
